SMILES strings stand for the structures. Entries after “also recorded” stand apart in the source; their conditions may differ. Counter-ions that a name gives are not always drawn.

Data on three compounds can be found in US8722923B2, “Conjugates for treating neurodegenerative diseases and disorders” (Ramot at Tel-Aviv University Ltd., priority 2008, dated 2014).

Data set [1] relates to MPTP acute model mice. Kind of data set: Experiment 3: tyrosine hydroxylase immunohistochemistry of striatum and substantia nigra, MPTP acute model. Format: in vivo, C57/BL/6J mice. To be noted: overall conclusion. As for the experimental part:
FIG. 13 presents a bar graph showing the effect of BL-1023* administration on the neuronal density in the stratium, as assessed from Tyrosine Hydroxylase staining. Mice were administered the following treatments: saline (control), MPTP+saline (MPTP), MPTP+L-DOPA 30 mg/kg (MPTP+L-DOPA), MPTP+L-DOPA 30 mg/kg+GABA 18.4 mg/kg (MPTP+L-DOPA+GABA), MPTP+BL1023* 48.4 mg/kg (denoted MPTP+1023 30) and MPTP+BL-1023* 24.2 mg/kg (denoted MPTP+BL1023 15). The MPTP neurotoxin was administered on day 0, with 4 IP injections (each injection contained 20 mg/kg, 5 ml/kg) in saline. The various treatments or saline were administered on day 7, 9, 11 and 13 (total of 4 treatments). Three mice, from each treatment group, and four mice from the control group, were sacrificed on day 15 and subjected to immunohystochemistry for tyrosine hydroxylase of the stratium according to the protocol described in the Examples section hereinbelow. The intensity of Tyrosine Hyroxylase (TH) staining, in the striatum of the treated mice is presented as the average of Intensity Optical Density (IOD) and SE obtained for the total stained area.
FIG. 15 presents a bar graph showing the effect of BL-1023* administration on the neuronal density in the substantia nigra, as assessed from Tyrosine Hydroxylase staining. […]

Data set [2] concerns MPTP sub-acute model mice. Kind of data set: Experiment 2: observed vitality signs (level of motion, fur appearance), MPTP sub-acute model. On Fur, observer 1: key: Split fur +; Shiny fur +++. On Fur, observer 2: key: Split fur +; Shiny fur +++. On Fur, observer 3: key: Split fur +; Shiny fur +++. On Fur, observer 4: key: Split fur +; Shiny fur +++. On Vitality, observer 1: key: slow motions +; normal motion +++. On Vitality, observer 2: key: slow motions +; normal motion +++. On Vitality, observer 3: key: slow motions +; normal motion +++. On Vitality, observer 4: key: slow motions +; normal motion +++. In kind it is in vivo, C57/BL/6J mice. The text has this: FIG. […] 6 hereinabove. Six independent observers estimated the level of mice vitality by the level of motion of the mice (light purple, marked vitality) and fur appearance (dark purple). The results are an average of the observers' reports.

The subject of data set [3] is MPTP sub-acute model mice. Kind of data set: Experiment 2: tyrosine hydroxylase immunostaining of striatum and substantia nigra, MPTP sub-acute model. The settings on record: GABA 18.4 mg/kg, L-DOPA 30 mg/kg + GABA 18.4 mg/kg, AN-490 81 mg/kg per os, days 29-30. In kind it is in vivo, C57/BL/6J mice. As for the experimental part:
Shown are microphotograph of the striatum and substantia-nigra of mice receiving saline (FIG. 8A, Naive), MPTP+saline (FIG. 8B, MPTP) MPTP+GABA.HCl 18.4 mg/kg (FIG. 8C, MPTP+GABA), MPTP+L-DOPA 30 mg/kg (FIG. 8D, MPTP+DOPA), MPTP+L-DOPA 30 mg/kg+GABA 18.4 mg/kg (FIG. 8E, MPTP+Dopa+GABA) and MPTP+AN-490 81 mg/kg (FIG. 8F, MPTP+AN490). Paraffin-embedded horizontal sections of the stratium and substantia nigra were stained with hematoxylan and Tyrosine Hyroxylase antibodies. The magnification is ×100 and in the insert ×200.
Animals under deep anesthesia were perfused through the aorta with phosphate-buffered saline (PBS), followed by a cold fixative consisting of 4% paraformaldehyde, 0.35% glutaraldehyde and 0.2% picric acid in phosphate buffer. After perfusion, the brain were removed and fixed in 4% paraformaldehyde for 24 hours, washed with PBS, dehydrated in increasing alcohol concentrations and embedded in paraffin. Paraffin-embedded tissues were processed as described [Rephaeli et al. Int J Cancer. 2005 Aug. 20; 116:226-35]. The avidin-biotin nonspecific binding was prevented by a blocking kit according to the manufacturer's protocol (Vector, USA). The sections were further incubated at 4° C. overnight with the primary antibody mouse monoclonal tyrosine hydroxylase (Visionbiosystem, Newcastle, UK, diluted 1:50). The secondary antibody was biotin conjugated goat anti-mouse IgG (Santa Cruz). Slides were then stained with ABC peroxidase system, developed with diaminobenzidine (DAB), chromogene substrate (Vector Laboratories, Inc. The slides were examined using an Olympus BX52 light microscope and images were taken with Olympus DP50 digital camera system. Images were analyzed by the ImagePro Plus 5.1 software. At least 12 different fields in each experimental group were analyzed. The Mean density±SEM was calculated for the striatum and the mean cell number±SEM was calculated for the SN.

For data set [4] the following is noted: compared with other esters such as the ethyl or octyl esters; cited from earlier work.
Data set [5] in a line: Hygroscopicity of acid addition salts. In kind it is physicochemical. To be noted: acid addition salts as isolated. The text has this: The hydrochloride salts of Compounds 6, 8a, 11, 13, 14, 16, 18 and 21 were identified as hygroscopic. […] The basis for this assumption was that the addition salt of an aromatic acid would be less hygroscopic than that of the corresponding hydrochloric acid addition salt. Thus, the butyl ester, Compound 20 was Boc-deprotected with 3 equivalents of benzenesulfonic acid in […].

Data set [6] has as its system MPTP acute model mice. As to the kind of experiment: Experiment 1: open field test, MPTP acute model (AN-490). Format: in vivo, C57/BL/6J mice. To be noted: for motility / motor activity in open field: MPTP treated mice, L-DOPA 25 mg/kg or AN-490 67.5 mg/kg by oral gavage, days 3, 6, 8, 16. As for the experimental part:
The MPTP neurotoxin was administered on day 0, with 4 IP injections (each injection contained 20 mg/kg, 5 ml/kg) in saline. The various treatments or saline were administered on days 0, 1, 2, 3, 6, 7, 13 and 16. Each group of mice (n=6) was subjected, on days 3, 6, 8 and 16, to the open field test, and the following parameters were scored: the distance moved (FIGS. 2A and 2B), velocity (FIGS. 2C and 2D), time spent immobile (FIGS. 2E and 2F) and time spent in a high level of mobility (FIGS. 2G and 2H; strong mobility) during a period of 20 minutes. FIGS. 2A, 2C, 2E and 2G present the data obtained for the control mice, mice treated with L-DOPA and mice treated with AN-490. FIGS. 2B, 2D, 2F and 2H present the data obtained for control mice or mice treated with MPTP, MPTP with L-DOPA and MPTP with AN-490.
Acute model: On day 1, C57/BL mice received 4× […] injections of 20 mg/kg MPTP-HCl (Sigma), dissolved in saline solution, at 2 hours intervals.
The open field test measures behavioral responses, locomotor activity, hyperactivity, and exploratory behaviors. Open field test is also used as a measure of anxiety. Mice tend to avoid brightly illuminated, novel, open spaces, so the open field environment acts as an anxiogenic stimulus and allows for measurement of anxiety-induced locomotor activity and exploratory behaviors. The apparatus for the open field test is a square (0.5×0.5 meter) made of white melamine. All activities were recorded by a video camera mounted above the open field and scored in real-time by a motion-recognition software package (Noldus, Holland) that detects and analyzes the movements of the animals. The video image of the open field arena was partitioned into equal-size squares zone. Total distance, average speed, rearing/elongation behavior, and time spent in various parts of the field (e.g. the border areas vs. mid-area) were measured. Testing was carried out in a temperature, noise and light controlled room.

Setting [7] is: MPTP sub-acute model, per os treatment.
[8] abbreviates: listed as Compound 21, tri-hydrochloride.
Setting [9] is: MPTP+AN-490 67.5 mg/kg, compared to the other tested groups.

Turning to `NCCCC(=O)O` [GABA, 4-amino-butyric acid], the “protection of TH positive cells” value in the data set on MPTP acute model mice [1] was “protect the TH positive cells”. In addition, in data set [2] (setting [7]), the “Fur, observer 1” value is reported as “+++”; the “Fur, observer 3” value was “+++”; the “Fur, observer 4” value is “+++”; the “Vitality, observer 1” value is “+++”. Besides, in data set [2] (setting [7]), the “Vitality, observer 2” value is reported as “+++”; the “Vitality, observer 3” value is on record as “+++”; the “Vitality, observer 4” value was “+++”. In addition, the “TH staining in the substantia nigra and striatum (IHC)” value (“TH staining” for short) in data set [3] is “protection or restoration of the normal morphology”.

In the case of `CCCCOC(=O)[C@@H](N)Cc1ccc(O)c(O)c1` [L-DOPA butyl ester], in data set [4], the skin permeability result is “better skin permeability”.

As to `CCCCOC(=O)[C@@H](N)Cc1ccc(OC(=O)CCCN)c(OC(=O)CCCN)c1` [AN-490, Butyl-2-amino-3-(3,4-phenyl-di[4-aminobutanoate])propanoate tri-hydrochloride], the hygroscopicity entry in data set [5] is “hygroscopic”. The “motility / motor activity in open field” value in the data set on MPTP acute model mice [6] (setting [8]) is “significant increase in motility”. For the same compound, the “motility / motor activity in open field” value in the data set on MPTP acute model mice [6] (tri-hydrochloride) was “continuous increase in motor activity”. In the data set with MPTP acute model mice [6] (setting [9]), the “strong mobility in open field” value is “highly mobile”, the “time spent immobile in open field” value was “immobile for a short time” and the “velocity in open field” value is on record as “highest velocity”. In data set [2] (setting [7]), the “Fur, observer 1” value is “+”; the “Fur, observer 2” value was “+”; the “Vitality, observer 1” value is “+++”; the “Vitality, observer 2” value is listed as “+++”. Further, in data set [2] (setting [7]), the “Vitality, observer 3” value is “+++” and the “Vitality, observer 4” value was “+++”. The “vitality signs (fur appearance)” value in data set [2] (MPTP+AN-490 81 mg/kg per os) is given as “reduced vitality signs”. Moreover, the “TH staining” value in data set [3] (setting [8]) is reported as “enhanced neuronal density”. In data set [3] (tri-hydrochloride), the “TH staining” value is on record as “protection or restoration of the normal morphology; also recorded: TH protective activity”.
